Experiments:
Format in all cases: cell-based
[1] = system: Cutibacterium acnes; assay: Surface antibacterial test, CFU count on support (Columbia agar); conditions: C. acnes; 24 h of contact at ambient temperature; sample solution 10 000 ppm in DMSO dried on inert support
Protocol: (§1) The tests were carried out at the surface: a solution of sample at 10 000 ppm in DMSO for a sample of HPA at 72% purity (i.e. […] of active material) was dried on an inert support. Once the solution had dried, a volume of inoculum of each bacterial strain was placed on the support in contact with the sample for 0 and 24 h at ambient temperature. In order to verify the nontoxicity of the DMSO, a pure solution of DMSO was dried on the support under the same conditions as the samples. A nontreated support (noted support control in FIG. 1) was also inoculated, in order to verify the stability of the strains under the conditions of the test. In order to quantify the contamination at each measurement time, a count was performed by spreading out, at the surface or in the mass, of decimal dilutions of the sample on TSA agar or Columbia agar (for C. acnes). The results were expressed in “colony-forming units” (CFUs) on the support. The Bacterial Strains Targeted are: Gram+: Cutibacterium acnes, Enterococcus hirae, Staphylococcus aureus

[2] = system: Staphylococcus aureus; assay: Surface antibacterial test, CFU count on support; conditions: S. aureus; 24 h of contact at ambient temperature; sample solution 10 000 ppm in DMSO dried on inert support
Protocol: as §1

[3] = system: Enterococcus hirae; assay: Surface antibacterial test, CFU count on support; conditions: E. hirae; 24 h of contact at ambient temperature; sample solution 10 000 ppm in DMSO dried on inert support
Protocol: as §1

[4] = system: Pseudomonas aeruginosa; assay: Surface antibacterial test, CFU count on support; conditions: P. aeruginosa; 24 h of contact at ambient temperature; sample solution 10 000 ppm in DMSO dried on inert support
Protocol: The tests were carried out at the surface: a solution of sample at 10 000 ppm in DMSO for a sample of HPA at 72% purity (i.e. […] of active material) was dried on an inert support. Once the solution had dried, a volume of inoculum of each bacterial strain was placed on the support in contact with the sample for 0 and 24 h at ambient temperature. In order to verify the nontoxicity of the DMSO, a pure solution of DMSO was dried on the support under the same conditions as the samples. A nontreated support (noted support control in FIG. 1) was also inoculated, in order to verify the stability of the strains under the conditions of the test. In order to quantify the contamination at each measurement time, a count was performed by spreading out, at the surface or in the mass, of decimal dilutions of the sample on TSA agar or Columbia agar (for C. acnes). The results were expressed in “colony-forming units” (CFUs) on the support. The Bacterial Strains Targeted are: Gram−: Pseudomonas aeruginosa

9(10)-hydroperoxy-10(9)-hydroxystearic acid [hydroperoxy alcohol of oleic acid]
logarithmic reduction of the population relative to t=0 [1]: approximately 6 log 10
logarithmic reduction of the population relative to t=0 [2]: approximately 5 log 10
logarithmic reduction of the population relative to t=0 [3]: approximately 5 log 10
logarithmic reduction in the population relative to t=0 [4]: approximately 4 log 10

From patent US20230181520A1, “USE OF HYDROPEROXY ALCOHOLS AND THE DERIVATIVES THEREOF AS ANTIMICROBIAL AGENTS” (DEMETA, priority 2019, published 2023)
